# Laboratory results published in patent US20220089592A1, “IMIDAZO[1,2-A]PYRIDINYL DERIVATIVES AS IRAK4 INHIBITORS” (priority 2019, published 2022).
# Biological target: T1, IRAK4 (Homo sapiens, UniProt Q9NWZ3)
# T1 sequence (Q9NWZ3 1-460): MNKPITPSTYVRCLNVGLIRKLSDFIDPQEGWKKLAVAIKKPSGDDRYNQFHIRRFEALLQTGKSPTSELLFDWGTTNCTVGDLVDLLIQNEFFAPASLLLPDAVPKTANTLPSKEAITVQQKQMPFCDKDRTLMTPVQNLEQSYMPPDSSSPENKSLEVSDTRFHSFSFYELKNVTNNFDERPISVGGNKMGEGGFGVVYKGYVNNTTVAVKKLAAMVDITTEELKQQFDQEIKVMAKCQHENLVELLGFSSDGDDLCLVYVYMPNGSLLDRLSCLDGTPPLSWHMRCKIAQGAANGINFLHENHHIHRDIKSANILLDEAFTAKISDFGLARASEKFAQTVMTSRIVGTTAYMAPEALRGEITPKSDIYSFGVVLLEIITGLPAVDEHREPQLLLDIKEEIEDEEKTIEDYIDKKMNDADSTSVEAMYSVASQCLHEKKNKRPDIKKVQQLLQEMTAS
# Assay: 2-hour 10 μM ATP Biochemical Assay (MesoScale Detection format; IRAK4 phosphorylation of biotin labeled IRAK1 activation loop peptide)
# Conditions: IRAK4 MSD BIOCHEMICAL (10 μM ATP) IC50 (μM), 1 nM IRAK4, 2 hours
# Experimental: The 2-hour 10 μM ATP Biochemical Assay employs a MesoScale Detection (MSD) format.
# The activity is quenched with 11 μl of 70 mM EDTA, pH 8.
# To detect the phosphorylated biotinylated peptide substrate, 30 μl of the quenched reaction mixture is added to equivalent wells of a 384 well streptavidin coated MesoScale plate (Meso Scale Discovery #L21SA-1). After a 1 hour incubation of the plate for 1 hour at room temperature with gentle mixing, the plate wells are washed 3 times with 50 mM Tris, pH 7.5, 150 mM NaCl, 0.02% Tween-20.
# A 25 μl volume of 1:500 anti-P-Threonine Rabbit polyclonal Antibody plus 1:500 Goat-anti-Rabbit Sulfo Tag Antibody (Meso Scale Discovery R32AB-1) in 50 mM Tris, pH 7.5, 150 mM NaCl, 0.02% Tween-20 plus 2% BSA is then added to each well. After a 1-hour incubation of the plate for 1 hour at room temperature with gentle mixing, the plate wells are washed, 3 times with 50 mM Tris, pH 7.5, 150 mM NaCl, 0.02% Tween-20. A 40 μl volume of 2×MSD Read Buffer (Meso Scale Discovery R92TC-1) is added to each well, and the plate is read immediately in an MSD Plate Reader (Meso Scale Discovery).
row,Structure (SMILES),IC50 [µM]
1,"CCOc1cc2nc(CC)cn2cc1NC(=O)c1nc(C(F)(F)F)ccc1F [Example 36, N-(7-ethoxy-2-ethylimidazo[1,2-a]pyridin-6-yl)-3-fluoro-6-(trifluoromethyl)picolinamide]",0.26
2,"CCOc1cc2nc(CC)cn2cc1NC(=O)c1ccc2c(c1)COC2 [Example 37, N-(7-ethoxy-2-ethylimidazo[1,2-a]pyridin-6-yl)-1,3-dihydroisobenzofuran-5-carboxamide]",1.7
3,"CCOc1cc2nc(CC)cn2cc1NC(=O)c1cc2n(n1)CCC2 [Example 38, N-(7-ethoxy-2-ethylimidazo[1,2-a]pyridin-6-yl)-5,6-dihydro-4H-pyrrolo[1,2-b]pyrazole-2-carboxamide]",2.6
4,"CCOc1cc2nc(CC)cn2cc1NC(=O)c1cccc2c1OCCN2C [Example 39, N-(7-ethoxy-2-ethylimidazo[1,2-a]pyridin-6-yl)-4-methyl-3,4-dihydro-2H-benzo[b][1,4]oxazine-8-carboxamide]",0.016
5,"CCOc1cc2nc(CC)cn2cc1NC(=O)c1ccc2c(c1)COCC2 [Example 43, N-(7-ethoxy-2-ethylimidazo[1,2-a]pyridin-6-yl)isochromane-7-carboxamide]",2.6
6,"CCOc1cc2nc(CC)cn2cc1NC(=O)c1cc(C)c(C)cn1 [Example 45, N-(7-ethoxy-2-ethylimidazo[1,2-a]pyridin-6-yl)-4,5-dimethylpicolinamide]",2.3
7,"CCOc1cc2nc(CC)cn2cc1NC(=O)c1ccc2c(c1)CCOC2 [Example 47, N-(7-ethoxy-2-ethylimidazo[1,2-a]pyridin-6-yl)isochromane-6-carboxamide]",1.1
8,"CCOc1cc2nc(CC)cn2cc1NC(=O)c1ccc(F)c(C(F)(F)F)n1 [Example 51, N-(7-ethoxy-2-ethylimidazo[1,2-a]pyridin-6-yl)-5-fluoro-6-(trifluoromethyl)picolinamide]",0.21
9,"COc1cc2nc(C3CC3)cn2cc1NC(=O)c1cccn(C)c1=O [Example 52, N-(2-cyclopropyl-7-methoxyimidazo[1,2-a]pyridin-6-yl)-1-methyl-2-oxo-1,2-dihydropyridine-3-carboxamide]",0.033
10,"CCOc1cc2nc(C3CC3)cn2cc1NC(=O)c1cc2ncccn2n1 [Example 53, N-(2-cyclopropyl-7-ethoxyimidazo[1,2-a]pyridin-6-yl)pyrazolo[1,5-a]pyrimidine-2-carboxamide]",0.11
11,"CCOc1cc2nc(C3CC3)cn2cc1NC(=O)c1cccc(C(F)(F)F)c1 [Example 54, N-(2-cyclopropyl-7-ethoxyimidazo[1,2-a]pyridin-6-yl)-3-(trifluoromethyl)benzamide]",0.14
12,"CCOc1cc2nc(C3CC3)cn2cc1NC(=O)c1cccnc1OCC(F)(F)F [Example 71, N-(2-cyclopropyl-7-ethoxyimidazo[1,2-a]pyridin-6-yl)-2-(2,2,2-trifluoroethoxy)nicotinamide]",0.66
13,"O=C(Nc1cnc2nc(C3CC3)cn2c1)c1cccc(C(F)(F)F)n1 [Example 92, N-(2-cyclopropylimidazo[1,2-a]pyrimidin-6-yl)-6-(trifluoromethyl)picolinamide]",0.076
14,"O=C(Nc1cn2cc(C3CC3)nc2cc1OCCN1CCOCC1)c1cccc(C(F)F)n1 [Example 102, N-(2-cyclopropyl-7-(2-morpholinoethoxy)imidazo[1,2-a]pyridin-6-yl)-6-(difluoromethyl)picolinamide]",0.061
15,"O=C(Nc1cc(O)c2nc(C3CCOCC3)cn2c1)c1cccc(C(F)(F)F)n1 [Example 104, N-(8-hydroxy-2-(tetrahydro-2H-pyran-4-yl)imidazo[1,2-a]pyridin-6-yl)-6-(trifluoromethyl)picolinamide]",0.13
16,"O=C(Nc1cc(Br)c2nc(C3CCOCC3)cn2c1)c1cccc(C(F)(F)F)n1 [Example 106, N-(8-bromo-2-(tetrahydro-2H-pyran-4-yl)imidazo[1,2-a]pyridin-6-yl)-6-(trifluoromethyl)picolinamide]",0.027
17,"O=C(Nc1cc(C2=CCOCC2)c2nc(C3CCOCC3)cn2c1)c1cccc(C(F)(F)F)n1 [Example 107, N-(8-(3,6-dihydro-2H-pyran-4-yl)-2-(tetrahydro-2H-pyran-4-yl)imidazo[1,2-a]pyridin-6-yl)-6-(trifluoromethyl)picolinamide]",0.084
18,"CCOc1cc2nc(C3CCOC(C)(C)C3)cn2cc1NC(=O)c1cccc(C(F)(F)F)n1 (centres unmarked) [Example 113, N-(2-(2,2-dimethyltetrahydro-2H-pyran-4-yl)-7-ethoxyimidazo[1,2-a]pyridin-6-yl)-6-(trifluoromethyl)picolinamide]",0.001
19,"CCOc1cc2nc([C@H]3C[C@H](OC)C3)cn2cc1NC(=O)c1cccc(C(F)F)n1 [Example 114, 6-(difluoromethyl)-N-(7-ethoxy-2-((1r,3r)-3-methoxycyclobutyl)imidazo[1,2-a]pyridin-6-yl)picolinamide]",0.001
20,"CCOc1cc2nc(C3CC3)cn2cc1NC(=O)c1cccc(OC(F)(F)F)n1 [Example 118, N-(2-cyclopropyl-7-ethoxyimidazo[1,2-a]pyridin-6-yl)-6-(trifluoromethoxy)picolinamide]",0.063

# Continued by falling IC50, values first:
row,IC50 [µM],Structure (SMILES)
1,2.5,"CCOc1cc2nc(CC)cn2cc1NC(=O)c1ccc(F)c(F)c1 [Example 35, N-(7-ethoxy-2-ethylimidazo[1,2-a]pyridin-6-yl)-3,4-difluorobenzamide]"
2,2,"CCOc1cc2nc(CC)cn2cc1NC(=O)c1nc(C)c(C)s1 [Example 48, N-(7-ethoxy-2-ethylimidazo[1,2-a]pyridin-6-yl)-4,5-dimethylthiazole-2-carboxamide]"
3,1.3,"CCOc1cc2nc(CC)cn2cc1NC(=O)c1ccc2c(c1)OCC2 [Example 42, N-(7-ethoxy-2-ethylimidazo[1,2-a]pyridin-6-yl)-2,3-dihydrobenzofuran-6-carboxamide]"
4,0.68,"CCOc1cc2nc3c(n2cc1NC(=O)c1cccc(C(F)(F)F)n1)CNCC3 [Example 64, N-(7-ethoxy-1,2,3,4-tetrahydroimidazo[1,2-a:5,4-c′]dipyridin-8-yl)-6-(trifluoromethyl)picolinamide]"
5,0.34,"CCOc1cc2nc(CC)cn2cc1NC(=O)c1ccc(F)cc1F [Example 40, N-(7-ethoxy-2-ethylimidazo[1,2-a]pyridin-6-yl)-2,4-difluorobenzamide]"
6,0.17,"CCc1cn2cc(NC(=O)c3cccc(C(F)F)n3)cc(F)c2n1 [Example 76, 6-(difluoromethyl)-N-(2-ethyl-8-fluoroimidazo[1,2-a]pyridin-6-yl)picolinamide]"
7,0.15,"CCOc1cc2nc(C3CC3)cn2cc1NC(=O)c1cccn(CC(F)(F)F)c1=O [Example 70, N-(2-cyclopropyl-7-ethoxyimidazo[1,2-a]pyridin-6-yl)-2-oxo-1-(2,2,2-trifluoroethyl)-1,2-dihydropyridine-3-carboxamide]"
8,0.14,"CCOc1cc2nc(CC)cn2cc1NC(=O)c1ccc2c(c1)NC(=O)C2 [Example 41, N-(7-ethoxy-2-ethylimidazo[1,2-a]pyridin-6-yl)-2-oxoindoline-6-carboxamide]"
9,0.11,"CCOc1cc2nc(C)c(C)n2cc1NC(=O)c1cccc(C(F)(F)F)n1 [Example 58, N-(7-ethoxy-2,3-dimethylimidazo[1,2-a]pyridin-6-yl)-6-(trifluoromethyl)picolinamide]"
10,0.089,"O=C(Nc1cn2cc(C3CC3)nc2cn1)c1cccc(C(F)F)n1 [Example 31, N-(2-cyclopropylimidazo[1,2-a]pyrazin-6-yl)-6-(difluoromethyl)picolinamide]"
11,0.083,"CCOc1cc2nc(CC)cn2cc1NC(=O)c1ccc(Cl)cn1 [Example 46, 5-chloro-N-(7-ethoxy-2-ethylimidazo[1,2-a]pyridin-6-yl)picolinamide]"
12,0.064,"CCOc1cc2nc(CC)cn2cc1NC(=O)c1cccc(NC(C)=O)n1 [Example 32, 6-acetamido-N-(7-ethoxy-2-ethylimidazo[1,2-a]pyridin-6-yl)picolinamide]"
13,0.023,"CCOc1cc2nc(CC)cn2cc1NC(=O)c1ccc(C)c(C)n1 [Example 34, N-(7-ethoxy-2-ethylimidazo[1,2-a]pyridin-6-yl)-5,6-dimethylpicolinamide]"
14,0.023,"O=C(Nc1cc(OCc2ccccc2)c2nc(C3CCOCC3)cn2c1)c1cccc(C(F)(F)F)n1 [Example 103, N-(8-(benzyloxy)-2-(tetrahydro-2H-pyran-4-yl)imidazo[1,2-a]pyridin-6-yl)-6-(trifluoromethyl)picolinamide]"
15,0.001,"CCOc1cc2nc(C3CCN(C)CC3)cn2cc1NC(=O)c1cccc(C(F)(F)F)n1 [Example 67, N-(7-ethoxy-2-(1-methylpiperidin-4-yl)imidazo[1,2-a]pyridin-6-yl)-6-(trifluoromethyl)picolinamide]"
